Patent publication US20240190838A1, “LZK-TARGETING DEGRADERS AND METHODS OF USE” (The U.S.A., as represented by the Secretary, Department of …, priority 2020, published 2024)

Assay: Parallel artificial membrane permeability assay (PAMPA)
Type: in vitro ADME
Conditions: Table 7

Ratio of mean permeability (×10^4 cm/s) related to low permeability control (atenolol) | Structure (SMILES)
1.31 | Cc1ncsc1-c1ccc([C@H](C)NC(=O)[C@@H]2C[C@@H](O)CN2C(=O)[C@@H](NCc2ccc(C(=O)N3CCC(c4cc(Nc5cc(C#N)ccn5)nc(N5CCC(F)(F)C5)c4)CC3)cc2)C(C)(C)C)cc1 [Compound 13]
0.01 | Cc1ncsc1-c1ccc([C@H](C)NC(=O)[C@@H]2C[C@@H](O)CN2C(=O)[C@@H](NC(=O)N2CCC(c3cc(Nc4cc(C#N)ccn4)nc(N4CCC(F)(F)C4)c3)CC2)C(C)(C)C)cc1 [Compound 27]
−0.14 | Cc1ncsc1-c1ccc([C@H](C)NC(=O)[C@@H]2C[C@@H](O)CN2C(=O)[C@@H](NC(=O)c2ccc(C(=O)N3CCC(c4cc(Nc5cc(C#N)ccn5)nc(N5CCC(F)(F)C5)c4)CC3)cc2)C(C)(C)C)cc1 [Compound 15]
−1.86 | Cc1ncsc1-c1ccc([C@H](C)NC(=O)[C@@H]2C[C@@H](O)CN2C(=O)[C@@H](NCC(=O)N2CCC(c3cc(Nc4cc(C#N)ccn4)nc(N4CCC(F)(F)C4)c3)CC2)C(C)(C)C)cc1 [Compound 28]

The next lines start with the molecule.

Structure (SMILES) | Ratio of mean permeability (×10^4 cm/s) related to low permeability control (atenolol)
Cc1ncsc1-c1ccc([C@H](C)NC(=O)[C@@H]2C[C@@H](O)CN2C(=O)[C@@H](NC(=O)[C@H]2C[C@H](C(=O)N3CCC(c4cc(Nc5cc(C#N)ccn5)nc(N5CCC(F)(F)C5)c4)CC3)C2)C(C)(C)C)cc1 [Compound 24] | 6.74
Cc1ncsc1-c1ccc([C@H](C)NC(=O)[C@@H]2C[C@@H](O)CN2C(=O)[C@@H](NC(=O)[C@H]2CC[C@@H]2C(=O)N2CCC(c3cc(Nc4cc(C#N)ccn4)nc(N4CCC(F)(F)C4)c3)CC2)C(C)(C)C)cc1 (single isomer, unassigned) [Compound 25] | 0.43
Cc1ncsc1-c1ccc([C@H](C)NC(=O)[C@@H]2C[C@@H](O)CN2C(=O)[C@@H](NC(=O)c2cc(C(=O)N3CCC(c4cc(Nc5cc(C#N)ccn5)nc(N5CCC(F)(F)C5)c4)CC3)ncn2)C(C)(C)C)cc1 [Compound 20] | −0.01
Cc1ncsc1-c1ccc([C@H](C)NC(=O)[C@@H]2C[C@@H](O)CN2C(=O)[C@@H](NC(=O)CCC(=O)N2CCC(c3cc(Nc4cc(C#N)ccn4)nc(N4CCC(F)(F)C4)c3)CC2)C(C)(C)C)cc1 [Compound 14] | −0.51
Cc1ncsc1-c1ccc([C@H](C)NC(=O)[C@@H]2C[C@@H](O)CN2C(=O)[C@@H](NCc2cccc(CN3CCC(c4cc(Nc5cc(C#N)ccn5)nc(N5CCC(F)(F)C5)c4)CC3)n2)C(C)(C)C)cc1 [Compound 9] | −0.46
Cc1ncsc1-c1ccc([C@H](C)NC(=O)[C@@H]2C[C@@H](O)CN2C(=O)[C@@H](NC(=O)[C@H](CCC(=O)N2CCC(c3cc(Nc4cc(C#N)ccn4)nc(N4CCC(F)(F)C4)c3)CC2)NC(=O)C(N)CCCNC(=N)N)C(C)(C)C)cc1 (stereo partly shown) [Compound 29] | 6.74
Cc1ncsc1-c1ccc([C@H](C)NC(=O)[C@@H]2C[C@@H](O)CN2C(=O)[C@@H](NC(=O)[C@H]2CC[C@H]2C(=O)N2CCC(c3cc(Nc4cc(C#N)ccn4)nc(N4CCC(F)(F)C4)c3)CC2)C(C)(C)C)cc1 (single isomer, unassigned) [Compound 26] | 1.47
Cc1ncsc1-c1ccc([C@H](C)NC(=O)[C@@H]2C[C@@H](O)CN2C(=O)[C@@H](NC(=O)CCCCC(=O)N2CCC(c3cc(Nc4cc(C#N)ccn4)nc(N4CCC(F)(F)C4)c3)CC2)C(C)(C)C)cc1 [Compound 12] | 0.61
Cc1ncsc1-c1ccc([C@H](C)NC(=O)[C@@H]2C[C@@H](O)CN2C(=O)[C@@H](NC(=O)c2ccc(C(=O)N3CCC(c4cc(Nc5cc(C#N)ccn5)nc(N5CCC(F)(F)C5)c4)CC3)nn2)C(C)(C)C)cc1 [Compound 21] | −0.11
